The values below are quoted from earlier work in patent publication US7341711B2, “Porphyrin compounds and their use in high-field MRI” (Guerbet, priority 2004, dated 2008).

Where “and” joins values, the source holds several entries; their conditions need not be identical. Equal entries are not always repeated. Where two headings read alike, the source gives them in different places.

Consider `O=S(=O)([O-])c1ccc(-c2c3nc(c(-c4ccc(S(=O)(=O)[O-])cc4)c4ccc([n-]4)c(-c4ccc(S(=O)(=O)[O-])cc4)c4ccc([n-]4)c(-c4ccc(S(=O)(=O)[O-])cc4)c4nc2C=C4)C=C3)cc1.[Mn+3]` [MnTPPS4], for which the relaxivity is, setting by setting: (at 1.5 T) 17 mmol⁻¹ s⁻¹; (field not stated) ~10 mmol⁻¹ s⁻¹; (in blood plasma at 0.25 T) 10.7 mmol⁻¹ s⁻¹ and 12.2 mmol⁻¹ s⁻¹.
